Assay results published in ChEMBL document CHEMBL1131892, “Synthesis and biological activities of NB-506 analogues: Effects of the positions of two hydroxyl groups at the indole rings” (Bioorg Med Chem Lett, 1999).

Legend:
DLD-1 = test: In vitro cytotoxicity against DLD-1 (human colon cancer) cells.; assay type: functional, cell-based
MKN-45 = test: In vitro cytotoxicity against MKN-45 (human stomach cancer) cells.; assay type: functional, cell-based
P388 [1] = test: Inhibition of protein-DNA complex in P388 (murine leukemia) cells.; assay type: functional, Mus musculus
P388 [2] = test: In vitro cytotoxicity against p388 (murine leukemia) cells.; assay type: functional, cell-based; conditions: Mus musculus
DNA topoisomerase 1 = molecular target: T1, DNA topoisomerase 1 (Homo sapiens, UniProt P11387); test: In vitro inhibition of Topoisomerase I-mediated DNA cleavage using supercoiled pBR322 plasmid DNA.
T1 sequence (P11387 whole entry): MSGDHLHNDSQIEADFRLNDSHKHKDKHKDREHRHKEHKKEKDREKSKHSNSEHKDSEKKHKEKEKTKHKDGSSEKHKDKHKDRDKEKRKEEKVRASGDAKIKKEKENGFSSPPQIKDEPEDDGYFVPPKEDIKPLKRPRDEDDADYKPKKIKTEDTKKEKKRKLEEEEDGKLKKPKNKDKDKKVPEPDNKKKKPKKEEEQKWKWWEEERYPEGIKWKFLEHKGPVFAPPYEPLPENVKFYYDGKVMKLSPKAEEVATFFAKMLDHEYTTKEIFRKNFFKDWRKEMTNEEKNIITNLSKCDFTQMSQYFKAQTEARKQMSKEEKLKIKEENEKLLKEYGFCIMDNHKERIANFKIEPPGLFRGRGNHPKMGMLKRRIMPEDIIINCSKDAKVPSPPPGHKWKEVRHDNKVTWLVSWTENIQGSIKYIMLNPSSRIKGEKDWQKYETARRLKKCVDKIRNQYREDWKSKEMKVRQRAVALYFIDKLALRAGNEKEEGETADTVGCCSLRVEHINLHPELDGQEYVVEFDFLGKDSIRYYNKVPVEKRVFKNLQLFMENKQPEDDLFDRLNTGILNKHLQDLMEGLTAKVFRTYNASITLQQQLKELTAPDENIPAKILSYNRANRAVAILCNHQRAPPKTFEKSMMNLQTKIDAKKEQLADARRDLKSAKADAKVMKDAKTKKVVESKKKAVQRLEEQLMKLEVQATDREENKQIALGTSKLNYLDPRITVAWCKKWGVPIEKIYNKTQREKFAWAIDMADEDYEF

Mus musculus = test: Tested for anticancer effect on MKN-45 human stomach cancer cells implanted subcutaneously into flanks of nude mice.; assay type: functional
[3] = Compound was tested for anticancer effect on cancer cells implanted subcutaneously into flanks of nude mice and safety margin was determined (LD10/GID75); assay type: functional, Cancer cell lines

Compound	IC50 (DLD-1)	IC50 (MKN-45)	EC200 (P388 [1])	IC50 (P388 [2])	EC50 (DNA topoisomerase 1)	GID75 (Mus musculus)	LD10 (Mus musculus)	Ratio [3]
O=C1c2c(c3c4ccc(O)cc4n(C4OC(CO)C(O)C(O)C4O)c3c3[nH]c4c(O)cc(O)cc4c23)C(=O)N1NC(CO)CO (stereo not given)	> 30000 nM	> 30000 nM	>10 µM	15000 nM	90 nM			
O=C1c2c(c3c4ccc(O)cc4n(C4OC(CO)C(O)C(O)C4O)c3c3[nH]c4c(O)cccc4c23)C(=O)N1NC(CO)CO (stereo not given)	200 nM	65 nM	0.8 µM	10 nM	55 nM	320 mg m**-2	350 mg m**-2	1.1
O=C1c2c(c3c4ccc(O)cc4n(C4OC(CO)C(O)C(O)C4O)c3c3[nH]c4ccccc4c23)C(=O)N1NC(CO)CO (stereo not given)	1000 nM	25 nM	0.4 µM	3.1 nM	230 nM	800 mg m**-2	1000 mg m**-2	1.3
O=C1c2c(c3c4ccc(O)cc4n(C4OC(CO)C(O)C(O)C4O)c3c3[nH]c4ccc(O)cc4c23)C(=O)N1NC(CO)CO (stereo not given)	79 nM	56 nM	0.35 µM	5.2 nM	37 nM	290 mg m**-2	1000 mg m**-2	3.4
O=C1c2c(c3c4ccc(O)cc4n(C4OC(CO)C(O)C(O)C4O)c3c3[nH]c4cc(O)ccc4c23)C(=O)N1NC(CO)CO (stereo not given)	120 nM	4.8 nM	0.1 µM	1.5 nM	51 nM	45 mg m**-2	>1600 mg m**-2	>36
O=C1c2c(c3c4ccccc4n(C4OC(CO)C(O)C(O)C4O)c3c3[nH]c4cc(O)ccc4c23)C(=O)N1NC(CO)CO (stereo not given)	2000 nM	110 nM	1.2 µM	13 nM	650 nM	820 mg m**-2	2700 mg m**-2	3.3
O=C1c2c(c3c4cc(O)ccc4n(C4OC(CO)C(O)C(O)C4O)c3c3[nH]c4cc(O)ccc4c23)C(=O)N1NC(CO)CO (stereo not given)	340 nM	120 nM	0.65 µM	3.5 nM	55 nM	710 mg m**-2	1000 mg m**-2	1.4
O=C1c2c(c3c4cccc(O)c4n(C4OC(CO)C(O)C(O)C4O)c3c3[nH]c4cc(O)ccc4c23)C(=O)N1NC(CO)CO (stereo not given)	89 nM	87 nM	0.4 µM	5.4 nM	160 nM	220 mg m**-2	370 mg m**-2	1.7
O=C1c2c(c3c4cc(O)ccc4n(C4OC(CO)C(O)C(O)C4O)c3c3[nH]c4ccccc4c23)C(=O)N1NC(CO)CO (stereo not given)	> 30000 nM	4200 nM	4.5 µM	47 nM	1900 nM			
O=C1c2c(c3c4ccccc4n(C4OC(CO)C(O)C(O)C4O)c3c3[nH]c4c(O)cccc4c23)C(=O)N1NC(CO)CO (stereo not given)	10000 nM	1600 nM	>10 µM	140 nM	210 nM			
O=C1c2c(c3c4cccc(O)c4n(C4OC(CO)C(O)C(O)C4O)c3c3[nH]c4c(O)cccc4c23)C(=O)N1NC(CO)CO (stereo not given)	520 nM		0.45 µM			78 mg m**-2	390 mg m**-2	5
O=C1c2c(c3c4c(O)cccc4n(C4OC(CO)C(O)C(O)C4O)c3c3[nH]c4ccccc4c23)C(=O)N1NC(CO)CO (stereo not given)	> 30000 nM	7100 nM	>10 µM	910 nM	490 nM			
O=C1c2c(c3c4cccc(O)c4n(C4OC(CO)C(O)C(O)C4O)c3c3[nH]c4ccccc4c23)C(=O)N1NC(CO)CO (stereo not given)	2600 nM	640 nM	2 µM	22 nM	650 nM			
O=C1c2c(c3c4ccccc4n(C4OC(CO)C(O)C(O)C4O)c3c3[nH]c4cccc(O)c4c23)C(=O)N1NC(CO)CO (stereo not given)	> 30000 nM	2100 nM	>10 µM	700 nM	570 nM			
O=C1c2c(c3c4cc(O)ccc4n(C4OC(CO)C(O)C(O)C4O)c3c3[nH]c4c(O)cccc4c23)C(=O)N1NC(CO)CO (stereo not given)	5100 nM	300 nM	3 µM	31 nM	130 nM	2200 mg m**-2	1800 mg m**-2	0.8
O=C1c2c(c3c4cc(O)ccc4n(C4OC(CO)C(O)C(O)C4O)c3c3[nH]c4ccc(O)cc4c23)C(=O)N1NC(CO)CO (stereo not given)	11000 nM	250 nM	0.6 µM	6.8 nM	210 nM	300 mg m**-2	380 mg m**-2	1.3
O=C1c2c(c3c4cccc(O)c4n(C4OC(CO)C(O)C(O)C4O)c3c3[nH]c4ccc(O)cc4c23)C(=O)N1NC(CO)CO (stereo not given)	220 nM	250 nM	0.55 µM	32 nM	510 nM	2500 mg m**-2	1900 mg m**-2	0.8
O=C1c2c(c3c4cc(O)cc(O)c4n(C4OC(CO)C(O)C(O)C4O)c3c3[nH]c4c(O)cc(O)cc4c23)C(=O)N1NC(CO)CO (stereo not given)	> 30000 nM	> 30000 nM	5.5 µM	> 30000 nM	350 nM			
O=C1c2c(c3c4ccccc4n(C4OC(CO)C(O)C(O)C4O)c3c3[nH]c4ccc(O)cc4c23)C(=O)N1NC(CO)CO (stereo not given)	5500 nM	720 nM	2 µM	130 nM	1100 nM			
